Holding throughout (assay type): cell-based
One assay concerns the target T1, hTAS2R43 (Homo sapiens, UniProt P59537).
T1 construct: gene TAS2R43; W35/H212 variant; first 45 amino acids of the rat somatostatin type 3 receptor fused for cell-surface targeting
T1 sequence (P59537 1-309): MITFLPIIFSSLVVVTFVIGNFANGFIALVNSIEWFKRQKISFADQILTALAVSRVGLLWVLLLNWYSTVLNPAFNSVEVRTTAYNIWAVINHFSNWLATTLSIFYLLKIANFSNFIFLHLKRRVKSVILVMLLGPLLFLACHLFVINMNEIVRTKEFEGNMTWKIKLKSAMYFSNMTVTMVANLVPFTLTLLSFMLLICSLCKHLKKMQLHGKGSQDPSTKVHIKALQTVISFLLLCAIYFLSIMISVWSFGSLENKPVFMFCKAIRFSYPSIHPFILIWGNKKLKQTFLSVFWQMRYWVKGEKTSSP
The experiment in a line: calcium flux in transfected HEK-293T cells (with Gα[…]gust44), […] aloin. (In general: A change in cytosolic calcium serves as a functional read-out for many receptors and channels.)

The target in another assay is T2, hTAS2R38 (Homo sapiens, UniProt P59533, A49P/I296V).
T2 construct: gene TAS2R38; PAV variant; first 45 amino acids of the rat somatostatin type 3 receptor fused for cell-surface targeting
T2 sequence (P59533 whole entry A49P/I296V, the tested form may be a part): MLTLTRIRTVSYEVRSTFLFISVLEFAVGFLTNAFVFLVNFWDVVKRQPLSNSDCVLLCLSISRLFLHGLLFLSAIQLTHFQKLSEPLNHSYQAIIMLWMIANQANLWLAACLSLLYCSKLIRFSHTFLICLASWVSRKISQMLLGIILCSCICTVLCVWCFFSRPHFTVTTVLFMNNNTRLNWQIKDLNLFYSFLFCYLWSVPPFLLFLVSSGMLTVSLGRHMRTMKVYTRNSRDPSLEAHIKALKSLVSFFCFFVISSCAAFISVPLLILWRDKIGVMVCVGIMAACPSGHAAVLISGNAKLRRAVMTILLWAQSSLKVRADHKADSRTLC
Nature of the assay: calcium flux in transfected HEK-293T cells (with Gα[…]gust44), inhibition of […] PTC response.

Assay [1] has as its target T3, hTAS2R16 (Homo sapiens, UniProt Q9NYV7, R222H).
T3 construct: gene TAS2R16
T3 sequence (Q9NYV7 1-291 R222H): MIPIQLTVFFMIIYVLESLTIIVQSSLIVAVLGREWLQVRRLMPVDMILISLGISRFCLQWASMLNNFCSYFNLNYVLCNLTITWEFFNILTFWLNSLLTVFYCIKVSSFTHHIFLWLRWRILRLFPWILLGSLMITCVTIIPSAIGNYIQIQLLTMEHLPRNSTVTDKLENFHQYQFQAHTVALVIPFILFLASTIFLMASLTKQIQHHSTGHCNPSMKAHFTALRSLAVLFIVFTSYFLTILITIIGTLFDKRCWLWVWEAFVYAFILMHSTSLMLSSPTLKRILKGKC
Nature of the assay: calcium flux in transfected HEK-293T cells (with Gα[…]gust44), inhibition of […] salicin response; dose-response and mutant analysis.

The target in assay [2] is T3, hTAS2R16. The experiment in a line: calcium flux agonist dose-response in transfected HEK-293T cells (with Gα[…]gust44).

The values below come from PMC3101243, “Probenecid Inhibits the Human Bitter Taste Receptor TAS2R16 and Suppresses Bitter Perception of Salicin” (PLoS ONE, 2011).

As to `O=C1c2c(O)cccc2C([C@@H]2O[C@H](CO)[C@@H](O)[C@H](O)[C@H]2O)c2cc(CO)cc(O)c21` (stereo partly shown) [aloin], at hTAS2R43, the “calcium flux in transfected HEK-293T cells (with Gα16gust44), 3 mM aloin” value is on record as “Aloin induced an increase in intracellular calcium in HEK-293T cells expressing hTAS2R43”. Usually IC50 stands for the concentration needed to halve the response being measured. As for `CCCN(CCC)S(=O)(=O)c1ccc(C(=O)O)cc1` [probenecid, p-(dipropylsulfamoyl)benzoic acid], the IC50 at hTAS2R38 was 211 µM; on hTAS2R16 [1] it was 292 µM. By EC50 is commonly meant the concentration that produces a half-maximal response. As to `OCc1ccccc1O[C@@H]1O[C@H](CO)[C@@H](O)[C@H](O)[C@H]1O` [salicin], the EC50 on hTAS2R16 [2] was approximately 1200 µM.
